The results in this text go back to patent US20260053931A1, “MDM2 TARGETING PROTACS” (THE WISTAR INSTITUTE OF ANATOMY AND BIOLOGY, priority 2023, published 2026).

Test [1] deals with p53-null mouse sarcoma cells. Put plainly: Murine Mdm2+/+ p53-null sarcoma cells, Western blot and MTT. The format is cell-based. The following applies: increasing concentrations, MTT assay, 48 hrs.
In the next test the target is MDM2-p53 (Homo sapiens, UniProt Q00987). Put plainly: Inhibition of MDM2 binding to p53 using HTRF (Table 3). The following applies: mean ± S.E.M. of three replications. On the technique in general: Time-resolved FRET reads energy transfer from a long-lived donor to a nearby acceptor.
Sequence of MDM2-p53 (Q00987 whole entry): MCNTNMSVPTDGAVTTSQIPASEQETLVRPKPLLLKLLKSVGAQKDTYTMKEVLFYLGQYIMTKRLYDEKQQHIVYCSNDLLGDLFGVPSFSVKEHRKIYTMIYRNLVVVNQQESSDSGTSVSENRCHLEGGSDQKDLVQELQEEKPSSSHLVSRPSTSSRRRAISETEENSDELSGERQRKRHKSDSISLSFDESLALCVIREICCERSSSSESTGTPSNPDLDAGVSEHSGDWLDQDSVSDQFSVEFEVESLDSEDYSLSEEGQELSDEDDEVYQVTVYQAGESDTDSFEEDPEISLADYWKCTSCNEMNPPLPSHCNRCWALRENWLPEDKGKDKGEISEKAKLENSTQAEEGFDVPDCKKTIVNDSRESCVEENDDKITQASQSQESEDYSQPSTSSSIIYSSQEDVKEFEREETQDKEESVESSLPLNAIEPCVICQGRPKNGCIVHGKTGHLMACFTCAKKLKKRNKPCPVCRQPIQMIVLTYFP
The target in another test is T1, VHL complex (Homo sapiens, UniProt P40337).
T1 construct: purchased R&D systems E3-655-025
T1 sequence (P40337 whole entry): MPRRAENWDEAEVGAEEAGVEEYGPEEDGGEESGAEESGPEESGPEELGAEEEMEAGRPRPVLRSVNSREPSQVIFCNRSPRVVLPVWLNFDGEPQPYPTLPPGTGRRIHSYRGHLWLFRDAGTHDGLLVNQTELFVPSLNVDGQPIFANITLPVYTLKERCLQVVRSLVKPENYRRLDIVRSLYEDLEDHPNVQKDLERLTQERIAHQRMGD
T1 sequence (Q15370 whole entry partner): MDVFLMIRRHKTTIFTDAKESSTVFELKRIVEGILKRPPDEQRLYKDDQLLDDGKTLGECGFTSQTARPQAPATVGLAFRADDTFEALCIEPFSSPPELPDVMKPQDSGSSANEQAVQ
T1 sequence (Q15369 whole entry partner): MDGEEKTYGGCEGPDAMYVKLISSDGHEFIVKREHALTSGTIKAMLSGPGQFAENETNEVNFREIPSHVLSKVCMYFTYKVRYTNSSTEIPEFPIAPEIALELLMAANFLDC
T1 sequence (Q13617 whole entry partner): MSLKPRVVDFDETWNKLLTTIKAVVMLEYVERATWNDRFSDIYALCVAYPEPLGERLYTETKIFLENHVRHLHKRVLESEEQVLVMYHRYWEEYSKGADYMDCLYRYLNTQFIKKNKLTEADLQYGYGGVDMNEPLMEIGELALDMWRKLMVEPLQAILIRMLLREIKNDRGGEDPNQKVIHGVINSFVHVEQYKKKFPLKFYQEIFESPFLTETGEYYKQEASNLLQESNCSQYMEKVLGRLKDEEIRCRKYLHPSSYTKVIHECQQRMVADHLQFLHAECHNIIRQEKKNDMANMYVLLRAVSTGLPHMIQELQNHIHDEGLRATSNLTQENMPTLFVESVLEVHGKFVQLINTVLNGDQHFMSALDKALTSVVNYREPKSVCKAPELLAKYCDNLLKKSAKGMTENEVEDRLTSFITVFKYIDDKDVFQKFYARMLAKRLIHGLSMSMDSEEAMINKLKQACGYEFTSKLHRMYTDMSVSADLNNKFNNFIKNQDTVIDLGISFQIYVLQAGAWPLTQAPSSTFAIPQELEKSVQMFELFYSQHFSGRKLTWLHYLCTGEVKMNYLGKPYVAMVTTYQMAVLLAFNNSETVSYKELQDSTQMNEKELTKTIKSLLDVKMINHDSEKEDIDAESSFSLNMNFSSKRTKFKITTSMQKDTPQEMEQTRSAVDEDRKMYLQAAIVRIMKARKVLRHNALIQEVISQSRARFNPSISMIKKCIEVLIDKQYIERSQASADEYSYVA
T1 sequence (P62877 whole entry partner): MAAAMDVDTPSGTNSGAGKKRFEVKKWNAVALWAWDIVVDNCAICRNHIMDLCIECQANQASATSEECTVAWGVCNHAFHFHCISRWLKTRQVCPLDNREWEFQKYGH
Kind of test: Inhibition of HIF-1α peptide binding to the VHL complex using HTRF (Table 3). Particulars: mean ± S.E.M. of three replications; read-out: VHL-HIFa peptide IC50. The method, then:
Assays contained 2 nM of HIS-VHL complex (R&D systems, E3-655-025), 2 nM of biotin-hydroxyproline-HIF1α peptide (Biotin-[…] (SEQ ID NO: 2), X=hydroxyproline), 0.3 nM anti-HIS-Tb HTRF donor antibody and 4 nM streptavidin-d2 HTRF acceptor (PerkinElmer) in a final volume of 10 μL of 25 mM HEPES, pH 7.4, 150 mM NaCl, 5 mM DTT, 0.005% Tween20 in white low volume 384-well plates. Both HIS-VHL complex and biotin-HIF1α peptide were pre-incubated with their respective HTRF antibodies for 15 min. Test compounds were solubilized at 10 mM in DMSO and concentration series was added to the assay plate using the Echo 650 acoustic liquid handling system by direct dilution. The final amount of DMSO added to the assay was 100 nL […]. Compounds were pre-incubated with HIS-VHL complex before the addition of the biotin-HIF1α peptide. After a 2 hr incubation, the HTRF signal was measured using the ClarioStar plate reader (BMG Labtech). […] IC50 values were determined from nonlinear regression fits of a data to a four parameter dose-response equation using XLFit (IDBS). Data are the means±S.E.M. of three replications. The data is described in Table 3 above.

A further test deals with TAp73. Put plainly: Western blotting for TAp73 in TNBC cell lines. The format is cell-based, human. Particulars: five TNBC cell lines. On the procedure: FIGS. 28A-28L show TAp73 is activated by the MDM2-PROTAC YX-02-030 and mediates apoptosis of p53-inactivated TNBC cells. A-C, RNA-seq (triplicates) was performed on MDA-MB-231 cells treated with the MDM2-PROTAC YX-02-030 (6 μM, 16 hr) or DMSO vehicle control or expressing MDM2 shRNA or non-targeting control shRNA (48 hr). A, Pathway analysis using Hallmark gene signatures. B, Heatmap of p53 family target genes of individual samples (3 each). C, Spearman's correlation of differentially expressed p53 family target genes between PROTAC-treated relative to DMSO vehicle control and MDM2 shRNA relative to non-targeting shRNA control; Spearman's correlation coefficient (p) and P-value indicated. D, qRT-PCR analysis (triplicate, 6 μM, 16 hr) to validate RNA-seq results. […] I, ChIP for TAp73 was performed with MDA-MB-231 cells following treatment with the MDM2-PROTAC YX-02-030 (6 μM, 16 hr) or DMSO vehicle control, and enrichment of TAp73 (triplicate; first normalized to input DNA then IgG control) was determined at the loci indicated. J and K, After 48 hr, MDA-MB-231 cells expressing two independent TAp73 shRNA or non-targeting shRNA (shNT) control were treated with MDM2-PROTAC YX-02-030 or DMSO vehicle control (6 μM, 16 hr). p53/TAp73 target genes were evaluated by Western blotting (J) and qRT-PCR (K, triplicate). […]
(A western blot detects proteins with antibodies after separation by electrophoresis.)

The term IC50 denotes the concentration that gives 50% inhibition.

Bounds are passed on as bounds.

Description for MDM2-p53: Test compounds were solubilized at 10 mM in DMSO and concentration series was added to the assay plate using the Echo 650 acoustic liquid handling system by direct dilution. The final amount of DMSO added to the assay was 100 nL (0.1%). Compounds were pre-incubated with 5 μL of GST-MDM2 for 15-30 min before 5 μL of HIS-p53/anti-HIS-d2 was added to the assay. After a 2 hr incubation, the HTRF signal was measured using the ClarioStar plate reader (BMG Labtech). […] IC50 values were determined from nonlinear regression fits of a data to a four parameter dose-response equation using XLFit (IDBS). Data are the means±S.E.M. of three replications.

For `CCOc1cc(C(C)(C)C)ccc1C1=N[C@@](C)(c2ccc(Cl)cc2)[C@@](C)(c2ccc(Cl)cc2)N1C(=O)N1CCN(CC(=O)O)CC1` (racemic) [YX-02-023, 2-(4-((4S,5R)-2-(4-(tert-butyl)-2-ethoxyphenyl)-4,5-bis(4-chlorophenyl)-4,5-dimethyl-4,5-dihydro-1H-imidazole-1-carbonyl)piperazin-1-yl)acetic acid], the “killing of p53-null sarcoma cells” value in test [1] is “not”. Besides, the IC50 is 11 ± 1.3 nM at MDM2-p53 and above 10000 nM at VHL complex.
For the compound `CCOc1cc(C(C)(C)C)ccc1C1=NC(C)(c2ccc(Cl)cc2)C(C)(c2ccc(Cl)cc2)N1C(=O)N1CCN(CC(=O)NCCOCCOCCOCC(=O)N[C@H](C(=O)N2C[C@H](O)C[C@H]2C(=O)NCc2ccc(-c3scnc3C)cc2)C(C)(C)C)CC1` (stereo in doubt) [YX-02-030, (2S,4R)-1-((S)-2-(tert-butyl)-17-(4-((4S,5R)-2-(4-(tert-butyl)-2-ethoxyphenyl)-4,5-bis(4-chlorophenyl)-4,5-dimethyl-4,5-dihydro-1H-imidazole-1-carbonyl)piperazin-1-yl)-4,16-dioxo-6,9,12-trioxa-3,15-diazaheptadecanoyl)-4-hydroxy-N-(4-(4-methylthiazol-5-yl)benzyl)pyrrolidine-2-carboxamide], in the test with TAp73, the TAp73 protein level result is on record as “levels of TAp73 protein increased”.
